Test results published in ChEMBL document CHEMBL4732247, “Discovery of A031 as effective proteolysis targeting chimera (PROTAC) androgen receptor (AR) degrader for the treatment of prostate cancer” (Eur J Med Chem, 2021).

Assays:
[1] = system: VCaP; experiment: Cytotoxicity against human VCaP cells assessed as growth inhibition at 0.25 uM after 4 days by CCK8 assay relative to control; format: functional; details: 96 h, time 4 day, read-out: GI
[2] = system: VCaP; experiment: Cytotoxicity against human VCaP cells assessed as growth inhibition at 0.125 uM after 4 days by CCK8 assay relative to control; format: functional; details: 96 h, time 4 day, read-out: GI
[3] = system: VCaP; experiment: Cytotoxicity against human VCaP cells assessed as growth inhibition at 0.5 uM after 4 days by CCK8 assay relative to control; format: functional; details: 96 h, time 4 day, read-out: GI
[4] = system: VCaP; experiment: Cytotoxicity against human VCaP cells assessed as growth inhibition at 1 uM after 4 days by CCK8 assay relative to control; format: functional; details: 96 h, time 4 day, read-out: GI
[5] = system: VCaP; experiment: Cytotoxicity against human VCaP cells assessed as growth inhibition after 4 days by CCK8 assay; format: functional, cell-based; details: dose 0.032-4 µM, time 4.0 day

SMILES	inhibition of growth at 0.25 µM [1] [%]	inhibition of growth at 0.125 µM [2] [%]	inhibition of growth at 0.5 µM [3] [%]	inhibition of growth at 1 µM [4] [%]	growth inhibition (GI) [5]
C[C@@]12C[C@H](NC(=O)c3ccc(N4CCN(CCCCCCCCNc5ccc6c(c5)C(=O)N(C5CCC(=O)NC5=O)C6=O)CC4)cc3)C[C@]1(C)C[C@@H](Oc1ccc(C#N)c(Cl)c1)C2 (stereo partly specified)	19.5	6.05	24.6	26	–
Cc1ncsc1-c1ccc([C@H](C)NC(=O)[C@@H]2C[C@@H](O)CN2C(=O)[C@@H](NC(=O)COCCN2CCN(c3ccc(C(=O)N4[C@@H]5CC[C@H]4C[C@@H](Oc4ccc(C#N)c(Cl)c4)C5)nn3)CC2)C(C)(C)C)cc1	6.65	–	12.5	28.1	–
N#Cc1ccc(O[C@H]2C[C@H]3CC[C@@H](C2)N3C(=O)c2cnc(N3CCN(CCCCCCNc4cccc5c4C(=O)N(C4CCC(=O)NC4=O)C5=O)CC3)nc2)cc1Cl (stereo partly specified)	23.5	10.1	32.1	40.5	Dose-dependent effect
Cc1ncsc1-c1ccc([C@H](C)NC(=O)[C@@H]2C[C@@H](O)CN2C(=O)[C@@H](NC(=O)COCCN2CCN(c3ccc(C(=O)N4[C@@H]5CC[C@H]4C[C@@H](Oc4ccc(C#N)c(Cl)c4)C5)nc3)CC2)C(C)(C)C)cc1	25.6	18.8	33.9	43.2	–
C[C@@]12C[C@H](NC(=O)c3ccc(N4CCN(CCCCCCNc5ccc6c(c5)C(=O)N(C5CCC(=O)NC5=O)C6=O)CC4)cc3)C[C@]1(C)C[C@@H](Oc1ccc(C#N)c(Cl)c1)C2 (stereo partly specified)	31.8	30.7	34.5	35.3	–
C[C@@]12C[C@H](NC(=O)c3ccc(N4CCN(CCCCCNc5ccc6c(c5)C(=O)N(C5CCC(=O)NC5=O)C6=O)CC4)cc3)C[C@]1(C)C[C@@H](Oc1ccc(C#N)c(Cl)c1)C2 (stereo partly specified)	30.3	24.1	38.1	44.5	–
Cc1ncsc1-c1ccc([C@H](C)NC(=O)[C@@H]2C[C@@H](O)CN2C(=O)[C@@H](NC(=O)COCCN2CCN(c3cnc(C(=O)N4[C@@H]5CC[C@H]4C[C@@H](Oc4ccc(C#N)c(Cl)c4)C5)cn3)CC2)C(C)(C)C)cc1	52	42.4	61.5	72.3	–
C[C@@]12C[C@H](NC(=O)c3ccc(N4CCN(CCCCCCCCCNc5ccc6c(c5)C(=O)N(C5CCC(=O)NC5=O)C6=O)CC4)cc3)C[C@]1(C)C[C@@H](Oc1ccc(C#N)c(Cl)c1)C2 (stereo partly specified)	18	–	24.3	25	–
C[C@@]12C[C@H](NC(=O)c3ccc(N4CCN(CCCCCCCNc5ccc6c(c5)C(=O)N(C5CCC(=O)NC5=O)C6=O)CC4)cc3)C[C@]1(C)C[C@@H](Oc1ccc(C#N)c(Cl)c1)C2 (stereo partly specified)	14	7.46	14.3	14.8	–
Cc1ncsc1-c1ccc(CNC(=O)[C@@H]2C[C@@H](O)CN2C(=O)[C@@H](NC(=O)CN2CCN(c3ccc(C(=O)N4[C@@H]5CC[C@H]4C[C@@H](Oc4ccc(C#N)c(Cl)c4)C5)cc3)CC2)C(C)(C)C)cc1	5.65	–	35.1	86.7	–
N#Cc1ccc(O[C@H]2C[C@H]3CC[C@@H](C2)N3C(=O)c2cnc(N3CCN(CCCNc4ccc5c(c4)C(=O)N(C4CCC(=O)NC4=O)C5=O)CC3)nc2)cc1Cl (stereo partly specified)	25.6	17.1	30.1	42.4	–
N#Cc1ccc(O[C@H]2C[C@H]3CC[C@@H](C2)N3C(=O)c2cnc(N3CCN(CCCCCCCNc4cccc5c4C(=O)N(C4CCC(=O)NC4=O)C5=O)CC3)nc2)cc1Cl (stereo partly specified)	27.4	26.7	28.3	37.5	Dose-dependent effect
N#Cc1ccc(O[C@H]2C[C@H]3CC[C@@H](C2)N3C(=O)c2cnc(N3CCN(CCCCCNc4ccc5c(c4)C(=O)N(C4CCC(=O)NC4=O)C5=O)CC3)nc2)cc1Cl (stereo partly specified)	31.4	20.4	34.2	34.9	–
Cc1ncsc1-c1ccc([C@H](C)NC(=O)[C@@H]2C[C@@H](O)CN2C(=O)[C@@H](NC(=O)COCCN2CCN(c3ccc(C(=O)N4[C@@H]5CC[C@H]4C[C@@H](Oc4ccc(C#N)c(Cl)c4)C5)cc3)CC2)C(C)(C)C)cc1	61.8	45	70.6	76.2	–
Cc1ncsc1-c1ccc([C@H](C)NC(=O)[C@@H]2C[C@@H](O)CN2C(=O)[C@@H](NC(=O)COCCN2CCN(c3ccc(C(=O)N4[C@@H]5CC[C@H]4C[C@@H](Oc4ccc(C#N)c(Cl)c4)C5)cn3)CC2)C(C)(C)C)cc1	7.23	28.4	63.6	72.5	–
Cc1ncsc1-c1ccc([C@H](CC(=O)NCCCCCCCN2CCN(c3ccc(C(=O)N4[C@@H]5CC[C@H]4C[C@@H](Oc4ccc(C#N)c(Cl)c4)C5)cc3)CC2)NC(=O)[C@H]2C[C@H](O)CN2C(=O)[C@H](NC(=O)C2(F)CC2)C(C)(C)C)cc1	2.18	–	14.5	29.8	–
Cc1ncsc1-c1ccc([C@H](CC(=O)NCCCCCCCCN2CCN(c3ccc(C(=O)N4[C@@H]5CC[C@H]4C[C@@H](Oc4ccc(C#N)c(Cl)c4)C5)cc3)CC2)NC(=O)[C@H]2C[C@H](O)CN2C(=O)[C@H](NC(=O)C2(F)CC2)C(C)(C)C)cc1	11.3	–	24.1	44.7	–
N#Cc1ccc(O[C@H]2C[C@H]3CC[C@@H](C2)N3C(=O)c2cnc(N3CCN(CCCCNc4ccc5c(c4)C(=O)N(C4CCC(=O)NC4=O)C5=O)CC3)nc2)cc1Cl (stereo partly specified)	22.2	10.2	36.5	53.1	–
Cc1ncsc1-c1ccc(CNC(=O)[C@@H]2C[C@@H](O)CN2C(=O)[C@@H](NC(=O)COCCN2CCN(c3ccc(C(=O)N4[C@@H]5CC[C@H]4C[C@@H](Oc4ccc(C#N)c(Cl)c4)C5)cc3)CC2)C(C)(C)C)cc1	31.1	18.5	56.6	64.6	–
Cc1ncsc1-c1ccc([C@H](CC(=O)NCCCCCCCCCN2CCN(c3ccc(C(=O)N4[C@@H]5CC[C@H]4C[C@@H](Oc4ccc(C#N)c(Cl)c4)C5)cc3)CC2)NC(=O)[C@H]2C[C@H](O)CN2C(=O)[C@H](NC(=O)C2(F)CC2)C(C)(C)C)cc1	15.9	5.34	29	55.2	–
Cc1ncsc1-c1ccc(CNC(=O)[C@@H]2C[C@@H](O)CN2C(=O)[C@@H](NC(=O)CCN2CCN(c3ccc(C(=O)N4[C@@H]5CC[C@H]4C[C@@H](Oc4ccc(C#N)c(Cl)c4)C5)cc3)CC2)C(C)(C)C)cc1	2.74	1.87	18.2	61.2	–
N#Cc1ccc(O[C@H]2C[C@H]3CC[C@@H](C2)N3C(=O)c2cnc(N3CCN(CCCCCCNc4ccc5c(c4)C(=O)N(C4CCC(=O)NC4=O)C5=O)CC3)nc2)cc1Cl (stereo partly specified)	36.3	31.7	37.8	38.9	–
CN1CCC(N2CCC(C#Cc3ccc(C(=O)N4[C@@H]5CC[C@H]4C[C@@H](Oc4ccc(C#N)c(Cl)c4)C5)cc3)CC2)CC1	23.3	14.9	30.1	34	–
N#Cc1ccc(O[C@H]2C[C@H]3CC[C@@H](C2)N3C(=O)c2cnc(N3CCN(CCCCCCCNc4ccc5c(c4)C(=O)N(C4CCC(=O)NC4=O)C5=O)CC3)nc2)cc1Cl (stereo partly specified)	30.7	28.1	35.2	30.4	–
N#Cc1ccc(O[C@H]2C[C@H]3CC[C@@H](C2)N3C(=O)c2cnc(N3CCN(CCCNc4cccc5c4C(=O)N(C4CCC(=O)NC4=O)C5=O)CC3)nc2)cc1Cl (stereo partly specified)	–	–	9.74	30.4	Dose-dependent effect
